# Test results as given in ChEMBL document CHEMBL1201862, “PubChem BioAssay data set” (2004).
#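 Step 1: Grow cells in 96-well plates. Step 2: Expose to compound for 48 hours at 5 concentrations. Step 3: Interpolate endpoints linearly; if unreached, use highest concentration. GI50 is the concentration that inhibits growth by half.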 The source made the active and inactive calls. Rule as the data show it: active = GI50 up to about 1.1 µM and inactive = higher.
# Tests used:
# Experiment in all cases: NCI tumour cell line growth inhibition, 48 h
# HCC 2998 = tested on: HCC 2998
# CAKI-1 = tested on: CAKI-1
# HOP-62 = tested on: HOP-62
# HOP-92 = tested on: HOP-92
# UO-31 = tested on: UO-31
# OVCAR-3 = tested on: OVCAR-3
# SF-268 = tested on: SF-268
# HCT-15 = tested on: HCT-15
# MOLT-4 = tested on: MOLT-4
# Malme-3M = tested on: Malme-3M
# DU-145 = tested on: DU-145
# COLO 205 = tested on: COLO 205
# IGROV-1 = tested on: IGROV-1
# NCI-H226 = tested on: NCI-H226
# NCI-H522 = tested on: NCI-H522
# SK-OV-3 = tested on: SK-OV-3
# SN12C = tested on: SN12C
# BT-549 = tested on: BT-549
Structure (SMILES),GI50 (HCC 2998),GI50 (CAKI-1),GI50 (HOP-62),GI50 (HOP-92),GI50 (UO-31),GI50 (OVCAR-3),GI50 (SF-268),GI50 (HCT-15) [µM],GI50 (MOLT-4),GI50 (Malme-3M),GI50 (DU-145),GI50 (COLO 205),GI50 (IGROV-1),GI50 (NCI-H226),GI50 (NCI-H522),GI50 (SK-OV-3),GI50 (SN12C),GI50 (BT-549)
O=C1C(O)=C(Cl)C(=O)c2c(O)ccc(O)c21,> 100 µM (inactive),> 100 µM (inactive),> 100 µM (inactive),> 100 µM (inactive),> 100 µM (inactive),> 100 µM (inactive),> 100 µM (inactive),> 100,10 µM (inactive),20.1 µM (inactive),> 100 µM (inactive),> 100 µM (inactive),> 100 µM (inactive),–,–,–,–,–
CN(C)/C=N/NC(=O)/C(C#N)=C/N(C)C,> 100 µM (inactive),> 100 µM (inactive),> 100 µM (inactive),–,> 100 µM (inactive),> 100 µM (inactive),> 100 µM (inactive),> 100,> 100 µM (inactive),75.3 µM (inactive),> 100 µM (inactive),> 100 µM (inactive),> 100 µM (inactive),> 100 µM (inactive),> 100 µM (inactive),> 100 µM (inactive),> 100 µM (inactive),–
O=c1c2ccccc2sc2cccc(NCCCN3CCN(CCCNc4cccc5sc6ccccc6c(=O)c45)CC3)c12,> 100 µM (inactive),> 100 µM (inactive),> 100 µM (inactive),–,> 100 µM (inactive),> 100 µM (inactive),> 100 µM (inactive),> 100,> 100 µM (inactive),> 100 µM (inactive),> 100 µM (inactive),> 100 µM (inactive),> 100 µM (inactive),> 100 µM (inactive),> 100 µM (inactive),> 100 µM (inactive),> 100 µM (inactive),–
CC1=NN(c2cccc(Cl)c2)C2(SCC(=O)N2c2nc3ccccc3s2)/C1=C\c1ccc(Cl)cc1 (stereo unspecified),14.5 µM (inactive),18.3 µM (inactive),18 µM (inactive),13.4 µM (inactive),15.1 µM (inactive),16.8 µM (inactive),17.9 µM (inactive),13.9,4.34 µM (inactive),–,18.4 µM (inactive),–,15 µM (inactive),23.8 µM (inactive),20.3 µM (inactive),21.5 µM (inactive),–,–
O=c1[nH]nc(Cc2ccccc2)n1/N=C/c1c[nH]c2ccccc12,> 100 µM (inactive),16.7 µM (inactive),60.7 µM (inactive),> 100 µM (inactive),> 100 µM (inactive),> 100 µM (inactive),21.9 µM (inactive),> 100,> 100 µM (inactive),57.1 µM (inactive),> 100 µM (inactive),> 100 µM (inactive),> 100 µM (inactive),> 100 µM (inactive),22.9 µM (inactive),96.2 µM (inactive),> 100 µM (inactive),–
Cn1c2c(c3ccccc31)CCN1C(=O)CCC21 (stereo unspecified),> 10 µM (inactive),> 10 µM (inactive),> 10 µM (inactive),> 10 µM (inactive),> 10 µM (inactive),> 10 µM (inactive),> 10 µM (inactive),> 10,> 10 µM (inactive),> 10 µM (inactive),> 10 µM (inactive),> 10 µM (inactive),> 10 µM (inactive),> 10 µM (inactive),> 10 µM (inactive),> 10 µM (inactive),> 10 µM (inactive),–
Cc1cc(C)nc(NC(P(=O)(O)O)P(=O)(O)O)n1,> 100 µM (inactive),> 100 µM (inactive),> 100 µM (inactive),–,> 100 µM (inactive),> 100 µM (inactive),> 100 µM (inactive),> 100,–,> 100 µM (inactive),> 100 µM (inactive),> 100 µM (inactive),> 100 µM (inactive),> 100 µM (inactive),> 100 µM (inactive),> 100 µM (inactive),–,> 100 µM (inactive)
CC(C)c1cc(CN(C)C)c(O)c(C(C)(C)C)c1,16.1 µM (inactive),23.1 µM (inactive),22.8 µM (inactive),–,23.1 µM (inactive),17.4 µM (inactive),22 µM (inactive),23.7,26.2 µM (inactive),22.2 µM (inactive),36.4 µM (inactive),20.7 µM (inactive),47.1 µM (inactive),21.5 µM (inactive),15.9 µM (inactive),98.9 µM (inactive),18.9 µM (inactive),37.5 µM (inactive)
Sc1ccc2ccccc2c1CNCc1ccccc1,> 100 µM (inactive),15.7 µM (inactive),15.4 µM (inactive),–,11.7 µM (inactive),13.6 µM (inactive),8.47 µM (inactive),16.4,2.25 µM (inactive),21.8 µM (inactive),18.4 µM (inactive),13.7 µM (inactive),2.65 µM (inactive),3.08 µM (inactive),4.93 µM (inactive),11.8 µM (inactive),6.24 µM (inactive),15.8 µM (inactive)
Nc1ccc(C(=O)O)cc1 [AMINOBENZOIC ACID],> 100 µM (inactive),> 100 µM (inactive),> 100 µM (inactive),> 100 µM (inactive),> 100 µM (inactive),> 100 µM (inactive),> 100 µM (inactive),21.1,> 100 µM (inactive),> 100 µM (inactive),> 100 µM (inactive),> 100 µM (inactive),> 100 µM (inactive),> 100 µM (inactive),> 100 µM (inactive),–,28.7 µM (inactive),–
CC(=O)/C=c1\[nH]/c(=C\C=C\c2ccccc2)c(=O)n1/C=C1\C(=O)Oc2ccccc2C1=O,–,> 100 µM (inactive),–,> 100 µM (inactive),> 100 µM (inactive),> 100 µM (inactive),> 100 µM (inactive),> 100,> 100 µM (inactive),> 100 µM (inactive),> 100 µM (inactive),> 100 µM (inactive),> 100 µM (inactive),> 100 µM (inactive),> 100 µM (inactive),> 100 µM (inactive),–,> 100 µM (inactive)
C[C@]12CCC(=O)C=C1CC[C@@H]1[C@@H]2CC[C@]2(C)C(=O)[C@H](n3ccnc3)C[C@@H]12,–,> 100 µM (inactive),–,> 100 µM (inactive),> 100 µM (inactive),–,> 100 µM (inactive),> 100,35.2 µM (inactive),> 100 µM (inactive),> 100 µM (inactive),> 100 µM (inactive),> 100 µM (inactive),> 100 µM (inactive),> 100 µM (inactive),–,> 100 µM (inactive),–
N#CC(C#N)=CNCCN1CCN(C=C(C#N)C#N)CC1,–,> 100 µM (inactive),> 100 µM (inactive),> 100 µM (inactive),> 100 µM (inactive),> 100 µM (inactive),> 100 µM (inactive),> 100,> 100 µM (inactive),> 100 µM (inactive),> 100 µM (inactive),> 100 µM (inactive),> 100 µM (inactive),> 100 µM (inactive),> 100 µM (inactive),> 100 µM (inactive),> 100 µM (inactive),> 100 µM (inactive)
Nc1cc(F)ccc1CC(=O)O,> 100 µM (inactive),> 100 µM (inactive),> 100 µM (inactive),–,> 100 µM (inactive),–,> 100 µM (inactive),> 100,> 100 µM (inactive),> 100 µM (inactive),> 100 µM (inactive),> 100 µM (inactive),> 100 µM (inactive),> 100 µM (inactive),> 100 µM (inactive),> 100 µM (inactive),> 100 µM (inactive),79.3 µM (inactive)
C=C1C2CC3CCC2C(OC(=O)c2ccccc2C(=O)O)C13 (stereo unspecified),> 100 µM (inactive),> 100 µM (inactive),> 100 µM (inactive),> 100 µM (inactive),> 100 µM (inactive),95.9 µM (inactive),> 100 µM (inactive),> 100,> 100 µM (inactive),> 100 µM (inactive),> 100 µM (inactive),> 100 µM (inactive),> 100 µM (inactive),> 100 µM (inactive),> 100 µM (inactive),> 100 µM (inactive),> 100 µM (inactive),–
CCOC(=O)C(=O)Nc1cc(Cl)c(Cl)cc1Cl,> 100 µM (inactive),> 100 µM (inactive),> 100 µM (inactive),> 100 µM (inactive),> 100 µM (inactive),> 100 µM (inactive),> 100 µM (inactive),> 100,> 100 µM (inactive),> 100 µM (inactive),–,> 100 µM (inactive),> 100 µM (inactive),> 100 µM (inactive),> 100 µM (inactive),> 100 µM (inactive),> 100 µM (inactive),–
C[C@H]1[C@H](C)CC[C@]2(C)CC[C@]3(C)C(=C[C@@H](O)[C@@H]4[C@@]5(C)[C@H](O)[C@@H](O)[C@H](O)C(C)(C)[C@@H]5CC[C@]43C)[C@H]12,–,> 100 µM (inactive),> 100 µM (inactive),–,> 100 µM (inactive),77.1 µM (inactive),> 100 µM (inactive),> 100,82.4 µM (inactive),–,> 100 µM (inactive),> 100 µM (inactive),67.8 µM (inactive),–,–,> 100 µM (inactive),> 100 µM (inactive),> 100 µM (inactive)
NC(Cc1c[nH]c2ccc([N+](=O)[O-])cc12)C(=O)O (stereo unspecified),–,> 100 µM (inactive),> 100 µM (inactive),–,> 100 µM (inactive),> 100 µM (inactive),> 100 µM (inactive),> 100,> 100 µM (inactive),> 100 µM (inactive),> 100 µM (inactive),> 100 µM (inactive),> 100 µM (inactive),> 100 µM (inactive),> 100 µM (inactive),> 100 µM (inactive),> 100 µM (inactive),> 100 µM (inactive)
